# Assay results from PubChem BioAssay AID276 (DTP/NCI, 2004).
# Several values for one entry are separate records, joined by “and”; a condition that tells them apart may be missing. Identical values can stand only once. Inconclusive results and toxic doses are left out.
# System: B6C3F1 mice, Lewis lung carcinoma iv, survival T/C
# Assay: NCI In Vivo Anticancer Drug Screen. Data for tumor model Lewis Lung Carcinoma (intravenous) in B6C3F1 mice
# Details: endpoint: median survival time, schedule: Q01DX009 (ip), higher = longer survival
# Method in brief: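 Transplantable tumor in mice; compound treated vs vehicle controls; read-out survival; value = treated/control (T/C).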
# [1] = dose: 0.12 mg/kg/injection, vehicle: saline
# [2] = dose: 0.25 mg/kg/injection, vehicle: saline
# [3] = dose: 0.5 mg/kg/injection, vehicle: saline
# [4] = dose: 6.25 mg/kg/injection, vehicle: water
# [5] = dose: 12.5 mg/kg/injection, vehicle: saline
# [6] = dose: 25.0 mg/kg/injection, vehicle: saline
# [7] = dose: 50.0 mg/kg/injection, vehicle: saline
# [8] = dose: 100.0 mg/kg/injection, vehicle: saline
# [9] = dose: 200.0 mg/kg/injection, vehicle: saline
# [10] = dose: 50.0 mg/kg/injection, vehicle: saline with Tween-80
# [11] = dose: 100.0 mg/kg/injection, vehicle: saline with Tween-80
# [12] = dose: 200.0 mg/kg/injection, vehicle: saline with Tween-80
# [13] = dose: 400.0 mg/kg/injection, vehicle: saline with Tween-80
# [14] = dose: 3.12 mg/kg/injection, vehicle: water
# [15] = dose: 12.5 mg/kg/injection, vehicle: water
# [16] = dose: 6.25 mg/kg/injection, vehicle: saline with Tween-80
# [17] = dose: 12.5 mg/kg/injection, vehicle: saline with Tween-80
# [18] = dose: 25.0 mg/kg/injection, vehicle: saline with Tween-80
# [19] = dose: 6.25 mg/kg/injection, vehicle: saline
# [20] = dose: 12.5 mg/kg/injection, vehicle: suspension in saline
# [21] = dose: 25.0 mg/kg/injection, vehicle: suspension in saline
structure (smiles),measurement,setting,value
CC1OC(OC2CC(O)(C(=O)CO)Cc3c(O)c4c(c(O)c32)C(=O)c2ccccc2C4=O)CC(N)C1O (centres undefined),T/C,"dose: 0.06 mg/kg/injection, vehicle: water",110 % of control
same,T/C,"dose: 0.12 mg/kg/injection, vehicle: other",105 % of control
same,T/C,[1],108 % of control
same,T/C,"dose: 0.12 mg/kg/injection, vehicle: water",122 % of control
same,T/C,"dose: 0.25 mg/kg/injection, vehicle: other",113 % of control
same,T/C,[2],103 % of control
same,T/C,"dose: 0.25 mg/kg/injection, vehicle: water",112 % of control
same,T/C,[3],110 % of control
same,T/C,"dose: 0.5 mg/kg/injection, vehicle: water",120 % of control
same,T/C,"dose: 1.0 mg/kg/injection, vehicle: water",173 % of control
COc1cccc2c1C(=O)c1c(O)c3c(c(O)c1C2=O)CC(O)(/C(C)=N/NC(=O)CCCCC(=O)N/N=C(\C)C1(O)Cc2c(O)c4c(c(O)c2C(OC2CC(N)C(O)C(C)O2)C1)C(=O)c1c(OC)cccc1C4=O)CC3OC1CC(N)C(O)C(C)O1 (centres undefined),T/C,"dose: 1.5 mg/kg/injection, vehicle: water",120 % of control
same,T/C,"dose: 3.0 mg/kg/injection, vehicle: water",109 % of control
same,T/C,[4],117 % of control
N=C(N)Sc1cc(O)ccc1O,T/C,[5],109 % of control
same,T/C,[6],95 % of control
same,T/C,[7],104 % of control
same,T/C,[8],99 % of control
same,T/C,[9],99 % of control
NC(=O)CC(N)C(=O)O (centres undefined),T/C,"dose: 50.0 mg/kg/injection, vehicle: other",95 % of control
same,T/C,[10],102 % of control
same,T/C,"dose: 100.0 mg/kg/injection, vehicle: other",110 % of control
same,T/C,[11],96 % of control
same,T/C,"dose: 200.0 mg/kg/injection, vehicle: other",97 % of control
same,T/C,[12],96 % of control
same,T/C,"dose: 400.0 mg/kg/injection, vehicle: other",92 % of control
same,T/C,[13],97 % of control
same,T/C,"dose: 800.0 mg/kg/injection, vehicle: other",104 % of control
same,T/C,"dose: 800.0 mg/kg/injection, vehicle: saline with Tween-80",100 % of control
same,T/C,"dose: 1600.0 mg/kg/injection, vehicle: other",99 % of control
same,T/C,"dose: 1600.0 mg/kg/injection, vehicle: saline with Tween-80",96 % of control
COc1cc(NCc2ccc3nc(N)nc(N)c3c2C)cc(OC)c1OC,T/C,[14],94 % of control
same,T/C,[4],102 % of control
same,T/C,[15],97 % of control and 124 % of control
same,T/C,"dose: 25.0 mg/kg/injection, vehicle: water",101 % of control and 111 % of control
same,T/C,"dose: 50.0 mg/kg/injection, vehicle: water",113 % of control and 117 % of control
C1CC[N-]CC1.[Cl][Pt+2][Cl].[NH-]C1CC1,T/C,"dose: 1.56 mg/kg/injection, vehicle: water",106 % of control
same,T/C,[14],110 % of control
same,T/C,[4],107 % of control and 109 % of control
same,T/C,[15],102 % of control and 120 % of control
CCOC(=O)CNC(=O)CCCCSc1ncnc2nc[nH]c12,T/C,"dose: 40.0 mg/kg/injection, vehicle: Klucel (hydroxypropylcellulose) (HPC)",101 % of control
same,T/C,"dose: 80.0 mg/kg/injection, vehicle: Klucel (hydroxypropylcellulose) (HPC)",112 % of control
same,T/C,"dose: 160.0 mg/kg/injection, vehicle: Klucel (hydroxypropylcellulose) (HPC)",110 % of control
same,T/C,"dose: 320.0 mg/kg/injection, vehicle: Klucel (hydroxypropylcellulose) (HPC)",95 % of control
same,T/C,"dose: 640.0 mg/kg/injection, vehicle: Klucel (hydroxypropylcellulose) (HPC)",111 % of control
O=C1C(NCCO)=C(N2CC2)C(=O)C(NCCO)=C1N1CC1,T/C,"dose: 0.06 mg/kg/injection, vehicle: saline",103 % of control
same,T/C,[1],97 % of control
same,T/C,[2],106 % of control
same,T/C,[3],108 % of control
same,T/C,"dose: 1.0 mg/kg/injection, vehicle: saline",106 % of control
O=C(CCCN1CCC(C(O)c2ccc(F)cc2)CC1)c1ccc(F)cc1 (centres undefined),T/C,"dose: 3.12 mg/kg/injection, vehicle: saline with Tween-80",102 % of control
same,T/C,[16],101 % of control
same,T/C,[17],105 % of control
COc1c(C)c2c(c(O)c1C/C=C(\C)CCC(=O)O)C(=O)OC2,T/C,[10],91 % of control
same,T/C,[11],91 % of control
same,T/C,[12],98 % of control
O=C(CN1CCOCC1)Nc1nc(-c2ccc(Cl)cc2)cs1,T/C,"dose: 50.0 mg/kg/injection, vehicle: DMSO",91 % of control
same,T/C,"dose: 100.0 mg/kg/injection, vehicle: DMSO",92 % of control
same,T/C,"dose: 200.0 mg/kg/injection, vehicle: DMSO",103 % of control
same,T/C,"dose: 400.0 mg/kg/injection, vehicle: DMSO",100 % of control
same,T/C,"dose: 800.0 mg/kg/injection, vehicle: DMSO",95 % of control
O=C(O)CP(=O)(O)O,T/C,[5],94 % of control
same,T/C,[6],97 % of control
same,T/C,[7],97 % of control
same,T/C,[8],95 % of control
same,T/C,[9],92 % of control
same,T/C,"dose: 400.0 mg/kg/injection, vehicle: saline",94 % of control
same,T/C,"dose: 800.0 mg/kg/injection, vehicle: saline",94 % of control
C=COC(=O)C(Cc1ccccc1)NC(=O)OCc1ccccc1 (centres undefined),T/C,[18],103 % of control
same,T/C,[10],112 % of control
same,T/C,[11],98 % of control
same,T/C,[12],105 % of control
same,T/C,[13],94 % of control
CCOC(=O)Nc1cc2c(c(N)n1)N=C(c1ccc(Cl)cc1Cl)CN2,T/C,[16],97 % of control
same,T/C,[17],113 % of control
NNC(=S)N/N=C/c1ccccn1,T/C,"dose: 1.56 mg/kg/injection, vehicle: suspension in saline",102 % of control
same,T/C,"dose: 3.12 mg/kg/injection, vehicle: suspension in saline",86 % of control
same,T/C,[19],115 % of control
same,T/C,"dose: 6.25 mg/kg/injection, vehicle: suspension in saline",98 % of control
same,T/C,[5],115 % of control
same,T/C,[20],108 % of control
same,T/C,[6],154 % of control
same,T/C,[21],101 % of control
O=C(O[Si](Cc1ccccc1)(Cc1ccccc1)Cc1ccccc1)N(CCCl)CCCl,T/C,[16],100 % of control
same,T/C,[17],108 % of control
same,T/C,[18],90 % of control and 100 % of control
same,T/C,[10],103 % of control
same,T/C,[11],108 % of control and 123 % of control
same,T/C,[12],124 % of control
Nc1nc(=S)c2ncn(C3CC(O)C(CO)O3)c2[nH]1 (centres undefined),T/C,[20],113 % of control
same,T/C,[21],100 % of control
same,T/C,"dose: 50.0 mg/kg/injection, vehicle: suspension in saline",108 % of control
same,T/C,"dose: 100.0 mg/kg/injection, vehicle: suspension in saline",103 % of control
same,T/C,"dose: 200.0 mg/kg/injection, vehicle: suspension in saline",95 % of control
same,T/C,"dose: 400.0 mg/kg/injection, vehicle: suspension in saline",90 % of control
[CH3][Sn]([CH3])([Cl])[S]CCN,T/C,"dose: 3.12 mg/kg/injection, vehicle: saline",99 % of control
same,T/C,[19],105 % of control
same,T/C,[5],99 % of control
same,T/C,[6],100 % of control
same,T/C,[7],96 % of control
